Data published in article PMC10809103, “Phosphatidylthreonine is a procoagulant lipid detected in human blood and elevated in coronary artery disease” (Journal of lipid research, 2023).

Key:
Factor X (FX) = molecular target: T1, Factor X (FX) (Homo sapiens, UniProt P00742); test: surface plasmon resonance, lipid in nanodiscs, steady state; format: binding; conditions: read-out: Kd (μM) / 40% PS 60% PC
T1 construct: gene F10; zymogen factor X, two-chain; source and preparation only in supplement; with Coagulation factor X (factor X heavy chain)
Source text: surface plasmon resonance, lipid in nanodiscs, steady state on Factor X (FX)

Prothrombin (FII) = molecular target: T2, Prothrombin (FII) (Homo sapiens, UniProt P00734); test: as above; format: binding; conditions: read-out: Kd (μM) / 40% PS 60% PC
T2 construct: gene F2; zymogen prothrombin; source and preparation only in supplement
Source text: surface plasmon resonance, lipid in nanodiscs, steady state on Prothrombin (FII)

T1 sequence (P00742 41-179): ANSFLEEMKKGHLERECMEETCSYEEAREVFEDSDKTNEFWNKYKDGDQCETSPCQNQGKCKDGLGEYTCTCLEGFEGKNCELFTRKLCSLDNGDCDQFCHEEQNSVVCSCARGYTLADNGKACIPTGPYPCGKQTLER
T1 sequence (P00742 183-488): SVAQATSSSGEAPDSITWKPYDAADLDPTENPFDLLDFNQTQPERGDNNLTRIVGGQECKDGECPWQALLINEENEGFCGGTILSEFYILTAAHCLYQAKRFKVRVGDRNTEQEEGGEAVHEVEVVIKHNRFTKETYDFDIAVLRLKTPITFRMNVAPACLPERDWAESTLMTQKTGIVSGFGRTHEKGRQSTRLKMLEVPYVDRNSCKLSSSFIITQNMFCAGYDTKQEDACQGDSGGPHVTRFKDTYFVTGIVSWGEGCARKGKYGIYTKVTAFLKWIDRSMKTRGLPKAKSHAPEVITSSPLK

CCCCCCCC/C=C\CCCCCCCC(=O)O[C@H](COC(=O)CCCCCCCCCCCCCCC)COP(=O)(O)OC[C@H](N)C(=O)O [PS 16:0/18:1(9Z)]
Kd (Factor X (FX)): 1.33 ± 0.191 µM
Kd (Prothrombin (FII)): 6.23 ± 0.921 µM
